Experimental data reported in ChEMBL document CHEMBL3217595, “RCAI-133, an N-methylated analogue of KRN7000, activates mouse natural killer T cells to produce Th2-biased cytokines” (2013).
Active and inactive are the calls of the source. The calls are words filed in the database; no cut-off is given here.

Legend:
Mus musculus [1] = assay: Immunostimulatory activity in C57BL/6 mouse assessed as induction of IL-4/IFN-gamma ratio in serum at 2 ug, iv administered through PBS solution; assay type: functional
Mus musculus [2] = assay: Immunostimulatory activity in C57BL/6 mouse assessed as induction of IL-4 production in serum at 2 ug, iv administered through PBS solution; assay type: functional, organism-based
Mus musculus [3] = assay: Immunostimulatory activity in C57BL/6 mouse assessed as induction of IFN-gamma production in serum at 2 ug, iv administered through PBS solution by ELISA; assay type: functional, organism-based

Row | Compound | Ratio (Mus musculus [1]) | Activity (Mus musculus [2]) | Activity (Mus musculus [3])
1 | CCCCCCCCCCCCCCCCCCCCCCCCCC(=O)N(C)[C@@H](CO[C@H]1O[C@H](CO)[C@H](O)[C@H](O)[C@H]1O)[C@H](O)[C@H](O)CCCCCCCCCCCCCC | 0.017 |  | 
2 | CCCCCCCCCCCCCCCCCC(=O)N[C@@H](CO[C@H]1O[C@H](CO)[C@H](O)[C@H](O)[C@H]1O)[C@H](O)[C@H](O)CCCCCCCCCCCCCC |  | Active | Active
3 | CCCCCCCCCCCCCCCCC(C)(C)C(=O)N[C@@H](CO[C@H]1O[C@H](CO)[C@H](O)[C@H](O)[C@H]1O)[C@H](O)[C@H](O)CCCCCCCCCCCCCC |  | Active | Active
4 | CCCCCCCCCCCCCCCC[C@@H](C)C(=O)N[C@@H](CO[C@H]1O[C@H](CO)[C@H](O)[C@H](O)[C@H]1O)[C@H](O)[C@H](O)CCCCCCCCCCCCCC |  | Active | Active
5 | CCCCCCCCCCCCCCCCC(C)(C)C(=O)N(C)[C@@H](CO[C@H]1O[C@H](CO)[C@H](O)[C@H](O)[C@H]1O)[C@H](O)[C@H](O)CCCCCCCCCCCCCC |  | inactive | inactive
6 | CCCCCCCCCCCCCCCCCCCCCCCCCC(=O)N[C@@H](CO[C@H]1O[C@H](CO)[C@H](O)[C@H](O)[C@H]1O)[C@H](O)[C@H](O)CCCCCCCCCCCCCC [RGI-7000] | 0.0043 |  | 
7 | CCCCCCCCCCCCCCCC[C@@H](C)C(=O)N(C)[C@@H](CO[C@H]1O[C@H](CO)[C@H](O)[C@H](O)[C@H]1O)[C@H](O)[C@H](O)CCCCCCCCCCCCCC |  | inactive | inactive
8 | CCCCCCCCCCCCCCCC[C@@H](O)C(=O)N[C@@H](CO[C@H]1O[C@H](CO)[C@H](O)[C@H](O)[C@H]1O)[C@H](O)[C@H](O)CCCCCCCCCCCCCC |  | Active | Active
9 | CCCCCCCCCCCCCCCCCC(=O)N(C)[C@@H](CO[C@H]1O[C@H](CO)[C@H](O)[C@H](O)[C@H]1O)[C@H](O)[C@H](O)CCCCCCCCCCCCCC | 0.0095 | inactive | inactive
10 | CCCCCCCCCCCCCCCC[C@@H](O)C(=O)N(C)[C@@H](CO[C@H]1O[C@H](CO)[C@H](O)[C@H](O)[C@H]1O)[C@H](O)[C@H](O)CCCCCCCCCCCCCC |  | inactive | inactive
